Data taken from patent US12091405B2, “Substituted pyrazole compounds as indoleamine 2,3-dioxygenase inhibitors” (Merck Sharp & Dohme LLC, priority 2018, dated 2024).

Legend:
IDO1 [1] = target: T1, IDO1 (Homo sapiens, UniProt P14902); test: IDO1 Human Whole Blood Assay; format: cell-based; set-up: Human whole blood was drawn in sodium heparin coated tubes from healthy internal donors; from tissue; host or cells: human whole blood from healthy donors, stimulated with LPS and IFNγ; details: LPS and IFNγ 100 ng/mL, overnight (18 h), kynurenine by LC/MS/MS
T1 sequence (P14902 whole entry): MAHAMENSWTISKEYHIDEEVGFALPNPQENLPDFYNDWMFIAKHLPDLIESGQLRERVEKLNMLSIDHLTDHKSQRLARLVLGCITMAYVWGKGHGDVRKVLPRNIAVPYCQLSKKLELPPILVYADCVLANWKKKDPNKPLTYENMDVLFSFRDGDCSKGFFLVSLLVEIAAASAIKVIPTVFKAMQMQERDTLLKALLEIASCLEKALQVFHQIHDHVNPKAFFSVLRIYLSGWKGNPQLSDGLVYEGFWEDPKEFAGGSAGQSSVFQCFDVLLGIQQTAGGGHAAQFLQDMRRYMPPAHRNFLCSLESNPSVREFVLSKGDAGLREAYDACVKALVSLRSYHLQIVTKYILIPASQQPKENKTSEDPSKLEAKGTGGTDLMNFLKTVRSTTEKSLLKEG
Description: IDO1 Human Whole Blood Assay
Compounds to be tested were serially diluted in ten 3-fold steps in DMSO starting from 10 mM. 3 μL of compound dilutions or DMSO alone were then dispensed from the dilution plate into a polypropylene 96-well assay plate containing 97 μL of RPMI medium using an Echo 555 acoustic liquid handler (Labcyte). LPS and IFNγ was prepared in RPMI medium to a 10× of final conc. (1000 ng/mL), final concentration is 100 ng/mL.
Human whole blood was drawn in sodium heparin coated tubes from healthy internal donors. 240 μL of blood was transferred to each of the wells of a v-bottom 96 well plate. 30 μL of compound was transferred from intermediate dilution plate, and incubated for 15 min. 30 μL from stimulants was then transferred to blood and mixed thoroughly. Plate was covered with breathable membrane and incubated at 37° C. for overnight (18 h).
On day 2, isotope labeled standard solutions of kynurenine and tryptophan was made in water at 10× concentration and 30 μL was added to the blood at 3 μM final concentration. The assay plates were centrifuged at 300×G for 10 min with no brake to separate plasma from red blood cells. 60 μL of plasma samples was removed without disturbing red blood cells. Plasma was diluted with RPMI in 1:1 ratio and proteins were precipitated out with two volumes of Acetonitrile. The plates were centrifuged at 4000×G for 60 min. 20 μL of supernatant was carefully transferred to a 384 well plate containing 40 μL of 0.1% formic acid in water and analyzed by LC/MS/MS.
LC/MS/MS analyses were performed using Thermo Fisher's LX4-TSQ Quantum Ultra system. This system consists of four Agilent binary high-performance liquid chromatography (HPLC) pumps and a TSQ Quantum Ultra triple quadrupole MS/MS instrument. For each sample, 5 μL were injected onto an Atlantis T3 column (2.1 mm×150 mm, 3 μm particle size) from Waters. The mobile phase gradient pumped at 0.8 mL/min was used to elute the analytes from the column at 25 EC. The elution started at 0% B increasing linearly to 25% B at 6.5 min, holding at 25% for 1 min, re-equilibrating to 10 min. Mobile phase A consisted of 0.1% formic acid in water. Mobile phase B consisted of 0.1% of formic acid in acetonitrile. Data were acquired in positive mode using a HESI interface. The operational parameters for the TSQ Quantum Ultra instrument were a spray voltage of 4000 V, capillary temperature of 380° C., vaporizer temperature 400° C., shealth gas 60 arbitrary units, Aux gas 20 arbitrary units, tube lens 85 and collision gas 1.2 mTorr. SRM chromatograms of kynurenine (Qi: 209.2>Q3:94.0) and internal standard (Qi: 215.3>Q3:98.2) were collected for 90 sec. The peak area was integrated by Xcalibur Quan software. The ratios between the kynurenine generated in the reaction and 2D6-Kynurenine spiked-in internal standard were used to generate percentage inhibition and IC50 values. Compounds were titrated and IC50's were calculated by 4 parameter sigmoidal curve fitting formula.
The biological activity data of selective compounds using the IDO1 human whole blood assay described above are summarized in the table below.

IDO1 [2] = target: T1, IDO1; test: IDO1 Cellular Assay in HeLa Cells Stimulated with IFNγ; format: cell-based; details: IFNγ 100 ng/mL, 300 uM L-tryptophan, about 48 hours, fluorescence readout, read-out: IDO1 HELA Cell Assay, IC50

Cc1c(C2CCN(C(=O)Cn3nc(C(=O)N4C[C@@H](C)O[C@@H](C)C4)c4c3CCC4)CC2)cccc1C(F)(F)F [Example 83, 2-{3-[(2R,6S)-2,6-dimethylmorpholine-4-carbonyl]-5,6-dihydrocyclopenta[c]pyrazol-1(4H)-yl}-1-{4-[2-methyl-3-(trifluoromethyl)phenyl]piperidin-1-yl}ethan-1-one]
IC50 (IDO1 [1]): 1850 nM | IC50 (IDO1 [2]): 4.2 nM

Cc1cccc(C2CCN(C(=O)Cn3nc(C(=O)N4CCN(C(=O)CO)CC4)c4c3C[C@H]3C[C@@H]43)CC2)c1C [Example 18, 1-[4-(2,3-dimethylphenyl)piperidin-1-yl]-2-{(3bR,4aR)-3-[4-(hydroxyacetyl)piperazine-1-carbonyl]-3b,4,4a,5-tetrahydro-1H-cyclopropa[3,4]cyclopenta[1,2-c]pyrazol-1-yl}ethan-1-one]
IC50 (IDO1 [1]): 58.9 nM | IC50 (IDO1 [2]): 2.3 nM

Cc1cccc(C2CCN(C(=O)Cn3nc(C(=O)N4CC[C@H](O)[C@H](F)C4)c4c3CCC4)CC2)c1C [Example 44, 1-(4-(2,3-dimethylphenyl)piperidin-1-yl)-2-(3-((3R,4S)-3-fluoro-4-hydroxypiperidine-1-carbonyl)-5,6-dihydrocyclopenta[c]pyrazol-1(4H)-yl)ethanone]
IC50 (IDO1 [1]): 733 nM | IC50 (IDO1 [2]): 7.3 nM

Cc1cccc(C2CCN(C(=O)Cn3nc(C(=O)N4CCN(C(=O)CO)CC4)c4c3CCCC4)CC2)c1C [Example 42, 1-(4-(2,3-dimethylphenyl)piperidin-1-yl)-2-(3-(4-(2-hydroxyacetyl)piperazine-1-carbonyl)-4,5,6,7-tetrahydro-1H-indazol-1-yl)ethanone]
IC50 (IDO1 [1]): 304 nM | IC50 (IDO1 [2]): 3.7 nM

Cc1cccc(C2CCN(C(=O)Cn3nc(C(=O)N4CC[C@@H](O)[C@@H](F)C4)c4c3CCCC4)CC2)c1C [Example 35, 1-(4-(2,3-dimethylphenyl)piperidin-1-yl)-2-(3-((3S,4R)-3-fluoro-4-hydroxypiperidine-1-carbonyl)-4,5,6,7-tetrahydro-1H-indazol-1-yl) ethanone]
IC50 (IDO1 [1]): 221 nM | IC50 (IDO1 [2]): 1.3 nM

Cc1cccc(C2CCN(C(=O)Cn3nc(C(=O)N4CCC(OCCO)CC4)c4c3CCC4)CC2)c1C [Example 33, 1-(4-(2,3-dimethylphenyl)piperidin-1-yl)-2-(3-(4-(2-hydroxyethoxy)piperidine-1-carbonyl)-5,6-dihydrocyclopenta[c]pyrazol-1(4H)-yl) ethanone]
IC50 (IDO1 [1]): 30.9 nM | IC50 (IDO1 [2]): 1.1 nM

Cc1cccc(C2(F)CCN(C(=O)Cn3nc(C(=O)N4CCC(O)CC4)c4c3CCC4)CC2)c1C [Example 9, 1-(4-(2,3-dimethylphenyl)-4-fluoropiperidin-1-yl)-2-(3-(4-hydroxypiperidine-1-carbonyl)-5,6-dihydrocyclopenta[c]pyrazol-1(4H)-yl)ethanone]
IC50 (IDO1 [1]): 3370 nM | IC50 (IDO1 [2]): 11.1 nM

Cc1cccc(C2CCN(C(=O)Cn3nc(C(=O)N4CC[C@H](O)[C@H](F)C4)c4c3CCC4)CC2)c1C (single isomer, unassigned) [Example 61, 1-(4-(2,3-dimethylphenyl)piperidin-1-yl)-2-(3-((3R,4S or 3S, 4R)-3-fluoro-4-hydroxypiperidine-1-carbonyl)-5,6-dihydrocyclopenta[c]pyrazol-1(4H)-yl)ethanone]
IC50 (IDO1 [1]): 545 nM | IC50 (IDO1 [2]): 3.7 nM

Cc1cc(C2CCN(C(=O)Cn3nc(C(=O)N4C[C@@H](C)O[C@@H](C)C4)c4c3CCC4)CC2)ccc1Cl [Example 81, 1-[4-(4-chloro-3-methylphenyl)piperidin-1-yl]-2-{3-[(2R,6S)-2,6-dimethylmorpholine-4-carbonyl]-5,6-dihydrocyclopenta[c]pyrazol-1(4H)-yl}ethan-1-one]
IC50 (IDO1 [1]): 1320 nM | IC50 (IDO1 [2]): 2.9 nM

Cc1cccc(C2CCN(C(=O)Cn3nc(C(=O)N4CCC(O)CC4)c4c3CCC4)CC2(F)F)c1C (single isomer, unassigned) [Example 14, 1-(4-(2,3-dimethylphenyl)-3,3-difluoropiperidin-1-yl)-2-(3-(4-hydroxypiperidine-1-carbonyl)-5,6-dihydrocyclopenta[c]pyrazol-1(4H)-yl)ethanone]
IC50 (IDO1 [1]): 1390 nM | IC50 (IDO1 [2]): 3.4 nM

Cc1cccc(C2CCN(C(=O)Cn3nc(C(=O)N4CC[C@H](O)[C@H](F)C4)c4c3C[C@H]3C[C@@H]43)CC2)c1C [Example 26, 1-[4-(2,3-dimethylphenyl)piperidin-1-yl]-2-{(3bR,4aR)-3-[(3R,4S)-3-fluoro-4-hydroxypiperidine-1-carbonyl]-3b,4,4a,5-tetrahydro-1H-cyclopropa[3,4]cyclopenta[1,2-c]pyrazol-1-yl}ethan-1-one]
IC50 (IDO1 [1]): 258 nM | IC50 (IDO1 [2]): 1.8 nM

Cc1c(F)cccc1C1CCN(C(=O)Cn2nc(C(=O)N3C[C@@H](C)O[C@@H](C)C3)c3c2CCC3)CC1 [Example 173, 2-{3-[(2R,6S)-2,6-dimethylmorpholine-4-carbonyl]-5,6-dihydrocyclopenta[c]pyrazol-1(4H)-yl}-1-[4-(3-fluoro-2-methylphenyl)piperidin-1-yl]ethan-1-one]
IC50 (IDO1 [1]): 269 nM | IC50 (IDO1 [2]): 6.4 nM

Cc1cccc(C2CCN(C(=O)Cn3nc(C(=O)N4CC[C@@H](O)[C@@H](C)C4)c4c3C[C@H]3C[C@@H]43)CC2)c1C [Example 22, 1-[4-(2,3-dimethylphenyl)piperidin-1-yl]-2-{(3bR,4aR)-3-[(3S,4R)-4-hydroxy-3-methylpiperidine-1-carbonyl]-3b,4,4a,5-tetrahydro-1H-cyclopropa[3,4]cyclopenta[1,2-c]pyrazol-1-yl}ethan-1-one]
IC50 (IDO1 [1]): 69.1 nM | IC50 (IDO1 [2]): 1.1 nM

Cc1cccc(C2CCN(C(=O)Cn3nc(C(=O)N4CC[C@H](O)[C@H](C)C4)c4c3C[C@H]3C[C@@H]43)CC2)c1C [Example 20, 1-[4-(2,3-dimethylphenyl)piperidin-1-yl]-2-{(3bR,4aR)-3-[(3R,4S)-4-hydroxy-3-methylpiperidine-1-carbonyl]-3b,4,4a,5-tetrahydro-1H-cyclopropa[3,4]cyclopenta[1,2-c]pyrazol-1-yl}ethan-1-one]
IC50 (IDO1 [1]): 53.3 nM | IC50 (IDO1 [2]): 0.9 nM

Cc1cccc(C2(F)CCN(C(=O)Cn3nc(C(=O)N4C[C@@H](C)O[C@@H](C)C4)c4c3CCC4)CC2)c1C [Example 7, 2-(3-((2R,6S)-2,6-dimethylmorpholine-4-carbonyl)-5,6-dihydrocyclopenta[c]pyrazol-1(4H)-yl)-1-(4-(2,3-dimethylphenyl)-4-fluoropiperidin-1-yl)ethanone]
IC50 (IDO1 [1]): 1210 nM | IC50 (IDO1 [2]): 3.2 nM

Cc1cccc(C2CCN(C(=O)Cn3nc(C(=O)N4CC[C@@H](O)[C@@H](F)C4)c4c3CCC4)CC2)c1C [Example 60, 1-(4-(2,3-dimethylphenyl)piperidin-1-yl)-2-(3-((3S,4R)-3-fluoro-4-hydroxypiperidine-1-carbonyl)-5,6-dihydrocyclopenta[c]pyrazol-1(4H)-yl)ethanone]
IC50 (IDO1 [1]): 488 nM | IC50 (IDO1 [2]): 3.5 nM

Cc1cccc(C2CCN(C(=O)Cn3nc(C(=O)N4CCC(O)(CF)CC4)c4c3CCCC4)CC2)c1C [Example 36, 1-(4-(2,3-dimethylphenyl)piperidin-1-yl)-2-(3-(4-(fluoromethyl)-4-hydroxypiperidine-1-carbonyl)-4,5,6,7-tetrahydro-1H-indazol-1-yl) ethanone]
IC50 (IDO1 [1]): 50.8 nM | IC50 (IDO1 [2]): 1.6 nM

Cc1cccc(C2CCN(C(=O)Cn3nc(C(=O)N4CC[C@@H](O)[C@@H](F)C4)c4c3C[C@H]3C[C@@H]43)CC2)c1C [Example 25, 1-[4-(2,3-dimethylphenyl)piperidin-1-yl]-2-{(3bR,4aR)-3-[(3S,4R)-3-fluoro-4-hydroxypiperidine-1-carbonyl]-3b,4,4a,5-tetrahydro-1H-cyclopropa[3,4]cyclopenta[1,2-c]pyrazol-1-yl}ethan-1-one]
IC50 (IDO1 [1]): 192 nM | IC50 (IDO1 [2]): 1.6 nM
